According to patent EP0098615A1, “1-Oxadethiacephalosporin compound and antibacterial agent containing the same” (MEIJI SEIKA KAISHA LTD., priority 1982, dated 1984):
≈ marks a conversion by molar mass, not a printed value. Read-outs that look alike come from different tables or passages of the source.

Assays:
[1] = system: Staphylococcus aureus Smith; assay: MIC by serial dilution method on agar plates; type: cell-based; settings: read-out: Minimum inhibitory concentrations (MIC.)
[2] = system: Staphylococcus aureus 209P JC-1; assay: MIC by serial dilution method on agar plates; type: cell-based; settings: read-out: Minimum inhibitory concentrations (MIC.)
[3] = system: Escherichia coli NIHJ JC-2; assay: MIC by serial dilution method on agar plates; type: cell-based
[4] = system: Klebsiella pneumoniae PCI 602; assay: MIC by serial dilution method on agar plates; type: cell-based
[5] = system: Proteus mirabilis GN 79; assay: MIC by serial dilution method on agar plates; type: cell-based
[6] = system: Salmonella typhimurium LT-2; assay: MIC by serial dilution method on agar plates; type: cell-based; settings: Salmonella enterica, read-out: Minimum inhibitory concentrations (MIC.)
[7] = system: Proteus vulgaris GN 76; assay: MIC by serial dilution method on agar plates; type: cell-based
[8] = system: Protues rettgeri GN 624; assay: MIC by serial dilution method on agar plates; type: cell-based; settings: read-out: Minimum inhibitory concentrations (MIC.)
[9] = system: Serratia marcescens No. 2; assay: MIC by serial dilution method on agar plates; type: cell-based
[10] = system: Escherichia coli No. 29; assay: Curative effect of oral administration in infected mice (survival); type: in vivo; settings: three mice in each group, i.p. inoculum 3.25 x 10^5 CFU/mouse, 7 days observation
From the text: Thus, some tests were made to evaluate the curative effects of the new compound of this invention in therapeutic treatment of bacterial infections when the new compound was orally given to mice (average body weight 20 g) which had been infected with Escherichia coli No. 29. In these tests for therapeutic treatment of the bacterial infection, mice (three mice in each group) were inoculated intraperitoneally with Escherichia coli No. 29 at an inoculum dose of 3.25 x 10^5 CFU/mouse and then immediately treated by oral administration of the test compound. For the subsequent 7 days, the mice were kept under observation and the number of surviving mice was counted.

[11] = Staphylococcus aureus Smith, serial dilution on agar plates
[12] = Staphylococcus aureus 209P JC-1, serial dilution on agar plates
[13] = NIHJJC2, Escherichia coli NIHJ JC-2, serial dilution on agar plates, read-out: Minimum inhibitory concentrations (MIC.)
[14] = PCI602, Klebsiella pneumoniae PCI 602, serial dilution on agar plates, read-out: Minimum inhibitory concentrations (MIC.)
[15] = GN79, Proteus mirabilis GN 79, serial dilution on agar plates, read-out: Minimum inhibitory concentrations (MIC.)
[16] = Salmonella typhimurium LT-2, serial dilution on agar plates
[17] = GN76, Proteus vulgaris GN 76, serial dilution on agar plates, read-out: Minimum inhibitory concentrations (MIC.)
[18] = Protues rettgeri GN 624, serial dilution on agar plates
[19] = Serratia marcescens No. 2, serial dilution on agar plates, read-out: Minimum inhibitory concentrations (MIC.)

Structure (SMILES) | number of surviving mice ([10]; 0.1 mg/mouse oral) | number of surviving mice ([10]; 1 mg/mouse oral) | number of surviving mice ([10]; 5 mg/mouse oral) | number of surviving mice ([10]; 10 mg/mouse oral) | MIC [1, 11] | MIC [2, 12] | MIC [3, 13] | MIC [4, 14] | MIC [5, 15] | MIC [6, 16] | MIC [7, 17] | MIC [8, 18] | MIC [9, 19] | also measured
CO/N=C(\C(=O)NC1C(=O)N2C(C(=O)O)=C(SC)COC12)c1csc(N)n1 (centres unmarked) [Example 6(b), 7-[2-(2-amino-4-thiazolyl)-2-methoxy-iminoacetamido]-1-oxa-1-dethia-3-methyl-thio-3-cephem-4-carboxylic acid tri-fluoroacetate] | 1 | 3 | 3 | 3 |  |  |  |  |  |  |  |  |  | MIC ([1]; Staphylococcus aureus): 3.13 µg/mL (≈ 7.57 µM); MIC ([2]; Staphylococcus aureus, 209P): 1.56 µg/mL (≈ 3.77 µM); MIC ([3]; Escherichia coli, NIHJJC2, read-out: Minimum inhibitory concentrations (MIC.)): 0.78 µg/mL (≈ 1.89 µM); MIC ([4]; Klebsiella pneumoniae, PCI602, read-out: Minimum inhibitory concentrations (MIC.)): 0.1 µg/mL (≈ 0.242 µM); MIC ([5]; Proteus mirabilis, GN79, read-out: Minimum inhibitory concentrations (MIC.)): 0.39 µg/mL (≈ 0.943 µM); MIC ([6]; TYPHIMURIUM): 0.05 µg/mL (≈ 0.121 µM); MIC ([7]; Proteus vulgaris, GN76, read-out: Minimum inhibitory concentrations (MIC.)): > 100 µg/mL; MIC [8]: 3.13 µg/mL (≈ 7.57 µM); MIC ([9]; Serratia marcescens, NO.2, read-out: Minimum inhibitory concentrations (MIC.)): 0.78 µg/mL (≈ 1.89 µM)
CSC1=C(C(=O)O)N2C(=O)C(NC(=O)C(C(=O)O)c3ccsc3)C2OC1 (centres unmarked) [Example 4(b), 7-[2-(3-thienyl)-2-carboxyacetamido]-1-oxa-1-dethia-3-methylthio-3-cephem-4-carboxylic acid] |  |  |  |  | 3.13 µg/mL (≈ 7.86 µM) | 1.56 µg/mL (≈ 3.92 µM) | 0.78 µg/mL (≈ 1.96 µM) | 0.39 µg/mL (≈ 0.979 µM) | 1.56 µg/mL (≈ 3.92 µM) | 0.2 µg/mL (≈ 0.502 µM) | 50 µg/mL (≈ 125 µM) | 1.56 µg/mL (≈ 3.92 µM) | 0.39 µg/mL (≈ 0.979 µM) | 
CSC1=C(C(=O)O)N2C(=O)C(NC(=O)Cc3cccs3)C2OC1 (centres unmarked) [Example 1(b), 7-(2-thienylacetamido)-1-oxa-1-dethia-3-methylthio-3-cephem-4-carboxylic acid] |  |  |  |  | 0.2 µg/mL (≈ 0.564 µM) | 0.2 µg/mL (≈ 0.564 µM) | 6.25 µg/mL (≈ 17.6 µM) | 1.56 µg/mL (≈ 4.4 µM) | 25 µg/mL (≈ 70.5 µM) | 1.56 µg/mL (≈ 4.4 µM) | > 100 µg/mL | > 100 µg/mL | > 100 µg/mL | 
CSC1=C(C(=O)O)N2C(=O)C(NC(=O)Cc3ccsc3)C2OC1 (centres unmarked) [Example 2(b), 7-(3-thienylacetamido)-1-oxa-1-dethia-3-methylthio-3-cephem-4-carboxylic acid] |  |  |  |  | 0.1 µg/mL (≈ 0.282 µM) | 0.05 µg/mL (≈ 0.141 µM) | 6.25 µg/mL (≈ 17.6 µM) | 1.56 µg/mL (≈ 4.4 µM) | 25 µg/mL (≈ 70.5 µM) | 1.56 µg/mL (≈ 4.4 µM) | > 100 µg/mL | > 100 µg/mL | > 100 µg/mL | 
COC1=C(C(=O)O)N2C(=O)[C@@H](NC(=O)[C@H](N)C3=CCC=CC3)[C@H]2SC1 [Cefroxadine, reference compound] | 0 | 0 | 3 | 3 | 1.56 µg/mL (≈ 4.27 µM) | 1.56 µg/mL (≈ 4.27 µM) | 3.13 µg/mL (≈ 8.57 µM) | 3.13 µg/mL (≈ 8.57 µM) | 50 µg/mL (≈ 137 µM) | 6.25 µg/mL (≈ 17.1 µM) | > 100 µg/mL | > 100 µg/mL | 100 µg/mL (≈ 274 µM) | 
CSC1=C(C(=O)O)N2C(=O)C(NC(=O)C(C(=O)O)c3cccs3)C2OC1 (centres unmarked) [Example 3(b), 7-[2-(2-thienyl)-2-carboxyacetamide]-1-oxa-1-dethia-3-methylthio-3-cephem-4-carboxylic acid] |  |  |  |  | 0.39 µg/mL (≈ 0.979 µM) | 0.2 µg/mL (≈ 0.502 µM) | 0.78 µg/mL (≈ 1.96 µM) | 0.78 µg/mL (≈ 1.96 µM) | 6.25 µg/mL (≈ 15.7 µM) | 0.78 µg/mL (≈ 1.96 µM) | 50 µg/mL (≈ 125 µM) | 3.13 µg/mL (≈ 7.86 µM) | 3.13 µg/mL (≈ 7.86 µM) | 
